The test system of test [1] is tyrosine residues in the cytoplasmic domain of NGFR. The test is described as follows: Tyrosine phosphorylation of ectodomain/NGFR chimeras expressed in COS1 cells (homophilic complex formation). The test is classed as cell-based. The settings on record: FIG. 9. As for the experimental part:
Cell lysate samples were subjected to separation on SDS-PAGE, followed by a transfer of the proteins in the gel to nitrocellulose membranes (Hybond-ECL, Amersham Pharmacia Biotech, Inc.). After blocking with a solution of 10% skim milk dissolved in TBS (20 mM Tris-HCl buffer, pH 7.5 containing 150 mM NaCl), the membrane was exposed to a monoclonal anti-FLAG M2 antibody (3 μg/ml) for detecting FLAG-tagged MT1-MMP and its mutants. In order to visualize the immunoreactive bands, the membrane was further exposed to an alkaline phosphatase-conjugated goat anti-mouse IgG antibody. For the purpose of detecting a phosphotyrosine residue in chimera proteins, a monoclonal anti-phosphotyrosine antibody, PY20 (1 μg/ml) was used.
By utilizing the above principle, a chimeric protein is first constructed consisting of the ectodomain of MT1-MMP and the transmembrane (TM) and cytoplasmic (CP) domains of NGFR (FIG. 8) in order to test for direct complex formation. When the ectodomain of this chimeric protein forms a homophilic complex in a similar manner, tyrosine residues in the cytoplasmic domain will be phosphorylated.
A FLAG-tagged MT1-MMP (MT1-F) expression construct as used herein was as described in Itoh, Y. et al., J. Biol. Chem. 274: 34260-34266, 1999. In addition, MT1-F was used as a template to generate cDNAs for MT1Cat-F (Δ Ile^318-Gly^535) and MT1PEX-F (ΔTyr^112-Pro^312) by the PCR extension method of Ho et al. (Ho, S. N. et al., Gene, 77: 51-59, 1989). The cDNA was subcloned into pSG5 (Stratagene, CA, USA). Chimera mutants of the ectodomain of MT1-F, MT1Cat-F, MT1PEX-F or MT4PEX-F, with the transmembrane (TM)/cytoplasmic (CP) domain of NGFR were also generated by the PCR method in a similar manner, and subcloned into pSG5. The MT1-MMP-derived sequence corresponded to Met^1 through Asp^515 of MT1-MMP, while the NGFR-derived sequence corresponded to Glu^384 through Gly^790 of NGFR (GenBank™ accession number M23102). The other chimera mutants were also composed from these corresponding sequences. All the PCR-generated fragments were confirmed by DNA sequencing.
Expression vectors for the protein were transfected into COS1 cells, using FuGENE6™ (Roche Molecular Biochemicals) according to the manufacturer's instructions. COS1 cells were seeded in 6-well plates at 1.5×10^5/well at 16 hrs before the transfection was performed. The COS1 cells were maintained in a HAM F-12 medium or DMEM containing 10% fetal bovine serum in a humidified incubator at 37° C. At 48 hrs after the transfection, the cells were collected for use in the experiments.
To monitor the dimer formation of the enzyme in the cells, another approach to detect the molecular interactions was executed. […]

In another test the target is T1, proMMP-2 (Homo sapiens, UniProt P08253).
T1 construct: made in house; host or cells: HighFive insect cells infected with recombinant baculovirus; purified from culture supernatant
T1 sequence (P08253 30-660 limits assumed): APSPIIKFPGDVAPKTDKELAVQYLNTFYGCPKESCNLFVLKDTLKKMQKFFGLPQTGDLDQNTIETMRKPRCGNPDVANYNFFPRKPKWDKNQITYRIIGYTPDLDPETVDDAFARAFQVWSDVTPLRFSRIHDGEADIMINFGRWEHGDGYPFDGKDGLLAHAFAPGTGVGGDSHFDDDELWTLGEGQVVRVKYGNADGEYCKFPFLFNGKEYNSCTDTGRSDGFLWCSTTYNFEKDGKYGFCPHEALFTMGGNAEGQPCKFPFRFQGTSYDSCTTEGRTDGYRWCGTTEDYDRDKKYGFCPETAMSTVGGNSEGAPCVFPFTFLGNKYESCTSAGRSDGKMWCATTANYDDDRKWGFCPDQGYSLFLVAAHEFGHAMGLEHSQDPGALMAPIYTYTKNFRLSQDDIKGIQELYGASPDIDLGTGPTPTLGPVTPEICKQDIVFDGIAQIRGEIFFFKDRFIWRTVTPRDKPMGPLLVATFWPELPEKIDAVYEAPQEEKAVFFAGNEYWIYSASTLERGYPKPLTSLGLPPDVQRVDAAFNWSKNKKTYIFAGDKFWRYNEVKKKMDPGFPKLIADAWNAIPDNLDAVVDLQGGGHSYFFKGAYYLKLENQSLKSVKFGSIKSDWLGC
Nature of the test: ProMMP-2 binding assay on transfected COS1 cells. The format is cell-based. The settings on record: COS1 cells expressing the mutant (FIG. 21). Here is the method:
Transfected COS1 cells were cultured in a 24-well plate (0.2×10^4/well). Forty-eight hours after transfection, the cells were washed three times with serum-free DMEM, and incubated with purified proMMP-2 (2 μg/ml) in the serum-free DMEM at 25° C. for 1 hr. The cells were then washed three times with serum-free DMEM containing 5% dimethyl sulfoxide (DMSO) to remove free proMMP-2, and lysed in 50 μl of a non-reducing SDS-loading buffer. MMP-2 bound to the cells was analyzed by gelatin zymography.

The subject of test [2] is MT1-MMP. Nature of the test: Activation of proMMP-2 by MT1-MMP on the cell surface of transfected cells (gelatin zymography). The test is classed as cell-based, human. The settings on record: transfected COS1 cells, exogenous purified proMMP-2 (FIGS. 2, 20). Here is the method: Gelatin zymography was conducted using an SDS-polyacrylamide gel (PAGE) containing gelatin (0.8 mg/ml) (Itoh, Y. et al., J. Biol. Chem., 273: 24360-24367, 1998). The samples were mixed with a SDS-PAGE loading buffer without a reducing agent and subjected to electrophoretic analysis at room temperature. Enzyme activity was visualized as a negative staining area with Coomassie Brilliant Blue R-250.
The expression construct for FLAG epitope ([…]-tagged MT1-MMP (MT1-F) described in Itoh, Y. et al., J. Biol. Chem., 274: 34260-34266, 1999 was used as a template to generate cDNA for MT1Cat-F (A Ile^318-Gly^535) by the PCR extension method of Ho et al., (Ho, S. N. et al., Gene, 77: 51-59, 1989). The cDNA was subcloned into pSG5 (Stratagene, CA, USA). The PCR-generated fragments were confirmed by DNA sequencing. COS1 cells were transfected with the expression vector for MT1-MMP mutant; MT1-F or MT1Cat-F, or a vector alone (Mock). Expression vectors for each protein were transfected using FuGENE6™ (Roche Molecular Biochemicals) according to the manufacturer's instructions. COS1 cells were seeded in 6-well plates at 1.5×10^5/well at 16 hrs before the transfection was performed. The COS1 cells were maintained in a HAM F-12 medium or DMEM containing 10% fetal bovine serum in a humidified incubator at 37° C. At 48 hrs after the transfection, the cells were collected for use in the experiments. The cells were incubated in the presence of purified proMMP-2 in a serum-free medium (0.25 μg/ml) at 37° C. for 18 hrs. Cell lysates were tested for the expression of the mutants, while culture supernatants were tested for the activation of proMMP-2.
To investigate roles of dimer formation upon the activation of proMMP-2, MT1-F was introduced into COS1 cells together with MT1PEX-F. The co-introduced cells were reacted with exogenously added proMMP-2. Thus, COS1 cells were co-transfected with the MT1-F and MT1PEX-F at indicated DNA amount ratios. Next, purified proMMP-2 (0.25 μg/ml) in a serum-free medium was reacted with the resulting cells at 37° C. for 18 hrs. MMP-2 in the culture supernatant was analyzed by gelatin zymography, and the cell lysates were subjected to Western blotting analysis using a monoclonal anti-FLAG M2 antibody.
(§1) Next, to determine if MT1PEX-F affects the catalytic activity of MT1-MMP on the cell surface or not, tests for gelatin degrading activity and binding capacity to TIMP-2 were conducted using cells transfected in the same incubator. As shown in FIGS. 12 through 14, CHO-K1 cells were transfected with an expression vector for MT1-F, MT1-F/MT1PEX-F or MT1Cat-F, or a vector alone (Mock). The cells were then treated with trypsin, and separately seeded to: DQ™ gelatin-coated cover slips for testing the proteolytic activity (FIG. 13); and 24-well plates for TIMP-2 binding assay (FIG. 12) and for the activation of proMMP-2 (FIG. 14). Transfected cells on the DQ™ gelatin-coated cover slip as shown in FIG. 13 were incubated in a medium at 37° C. for 18 hrs, and the generated fluorescence was analyzed using confocal microscopy. Transfected cells on the 24-well plate as shown in FIG. 12 were incubated with 25 nM ^125I-labeled TIMP-2 in the presence or absence of BB-94 (50 μM) at 0° C. for 1 hr. MT1-MMP specific binding was calculated by subtracting the datum obtained in the presence of BB-94 (50 μM) from each datum derived from the corresponding experiments. […] DQ™ gelatin is a fluorescence-quenched gelatin, which fluoresces upon proteolytic cleavage. […]

Test [3] has as its system MT1-MMP. The test is described as follows: In situ gelatin degrading assay (DQ gelatin or Alexa488-conjugated gelatin). The test is classed as cell-based, human. As to conditions: DQ gelatin; CHO-K1 (FIG. 13) or COS1 cells (FIG. 22). Here is the method:
Two different in situ gelatin degrading assays were performed. One used DQ™ gelatin (Molecular Probes, Inc., OR, USA). DQ gelatin is a fluorescence-quenched gelatin substrate, and will fluoresce upon proteolytic cleavage. Glass cover slips were coated with 5% DQ™ gelatin in a 10 mg/ml unlabeled gelatin solution, and dried. Transfected cells were cultured on the cover slip in a humidified chamber for 16 hrs. The cells were then fixed with 3% para-formaldehyde and the degraded areas were visualized as those showing fluorescence.
The other assay used Alexa488-conjugated gelatin made with an Alexa488-labeling kit (Molecular Probes). The bottom surfaces of 4-well chamber slides (Nunc) were coated with Alexa488-conjugated gelatin according to the method of Yana, I. and Weiss, S. J., Mol. Biol. Cell, 11, 2387-2401, 2000. Transfected COS1 cells were cultured in the chamber slides for 16 hrs in a humidified culture incubator. The cells were then fixed with 3% para-formaldehyde in PBS, and the degraded area was analyzed under a fluorescence microscope. The degraded area was visualized as a dark, non-fluorescent area. Fluorescence images were analyzed using confocal microscopy (BioRad).
as §1, with “experiments. Identically transfected cells on the 24-well plate as shown in FIG. 14 were subjected to the reaction with purified proMMP-2 in a serum-free medium at 37° C. for 18 hrs. The cells and culture supernatants were respectively subjected to Western blotting analysis using a monoclonal anti-FLAG M2 antibody, and gelatin zymography analysis.” for “experiments.”

As to “MT1-F/NGFR: Chimera of the ectodomain of MT1-F with the transmembrane/cytoplasmic domain of NGFR”, in test [1], the “tyrosine phosphorylation of the chimera (Anti-PY)” value (“tyrosine phosphorylation” for short) is reported as “phosphorylated”. For “MT1-MT4PEX: MT1-MMP in which Cys319 to Cys508 is replaced with Cys336 to Cys527 of mouse MT4-MMP”, the “ternary complex formation with TIMP-2/proMMP-2 on the cell surface” value in the test with proMMP-2 is listed as “can form a ternary complex”. In the test on MT1-MMP [2], the “activation of proMMP-2 by cells expressing the mutant” value is reported as “did not activate proMMP-2”. For the same substance, the “gelatin degrading (proteolytic) activity of cells expressing the mutant” value in the test with MT1-MMP [3] is recorded as “showed proteolytic activity”. In the case of “MT1Cat-F/NGFR: Chimera of the ectodomain of MT1Cat-F with the transmembrane/cytoplasmic domain of NGFR”, the “tyrosine phosphorylation” value in test [1] is “extremely low”. On to “MT1PEX-F/NGFR: Chimera of the ectodomain of MT1PEX-F with the transmembrane/cytoplasmic domain of NGFR”, for which the “tyrosine phosphorylation” value in test [1] is on record as “strongly phosphorylated”. For the substance “MT4PEX-F/NGFR: Chimera of the ectodomain of MT4PEX-F with the transmembrane/cytoplasmic domain of NGFR”, the “tyrosine phosphorylation” value in test [1] was “extremely low”.

Source of the values: patent US20040120954A1, “Regulation of mt1-mmp activity” (priority 2000, published 2004).
